Data set [1] addresses T1, human GLP-1R (Homo sapiens, UniProt P43220, L260F).
T1 construct: expressed in transfected cells
Kind of data set: CHO GLP-1R Clone C6 - Assay 2 (HTRF cAMP agonist assay, low receptor density). In kind it is cell-based. As to conditions: CHO GLP-1R Clone C6 (low receptor density); for Emax: arithmetic mean, relative to 1 μM GLP-1; for EC50: geometric mean. Background: Time-resolved FRET reads energy transfer from a long-lived donor to a nearby acceptor.
Protocol: GLP-1R-mediated agonist activity was determined with a cell-based functional assay utilizing an HTRF (Homogeneous Time-Resolved Fluorescence) cAMP detection kit (cAMP HI Range Assay Kit; Cis Bio cat #62AM6PEJ) that measures cAMP levels in the cell. The method is a competitive immunoassay between native cAMP produced by the cells and exogenous cAMP labeled with the dye d2. The tracer binding is visualized by a mAb anti-cAMP labeled with Cryptate. The specific signal (i.e. energy transfer) is inversely proportional to the concentration of cAMP in either a standard or an experimental sample.
The human GLP-1R coding sequence (NCBI Reference Sequence NP_002053.3, including naturally-occurring variant Leu260Phe) was subcloned into pcDNA5-FRT-TO and a clonal CHO cell line stably expressing a low receptor density was isolated using the Flp-In™ T-Rex™ System, as described by the manufacturer (ThermoFisher).
Cells were removed from cryopreservation, re-suspended in 40 mL of Dulbecco's Phosphate Buffered Saline (DPBS—Lonza Cat #17-512Q) and centrifuged at 800×g for 5 minutes at 22° C. The DPBS was aspirated, and the cell pellet was re-suspended in 10 mL of complete growth medium (DMEM:F12 1:1 Mixture with HEPES, L-Gln, 500 mL (DMEM/F12 Lonza Cat #12-719F), 10% heat inactivated fetal bovine serum (Gibco Cat #16140-071), 5 mL of 100× Pen-Strep (Gibco Cat #15140-122), 5 mL of 100× L-Glutamine (Gibco Cat #25030-081), 700 μg/mL Hygromycin (Invitrogen Cat #10687010) and 15 μg/mL Blasticidin (Gibco Cat #R21001). A 1 mL sample of the cell suspension in growth media was counted on a Becton Dickinson ViCell to determine cell viability and cell count per mL. The remaining cell suspension was then adjusted with growth media to deliver 1600 viable cells per well using a Matrix Combi Multidrop reagent dispenser, and the cells were dispensed into a white 384 well tissue culture treated assay plate (Corning 3570). The assay plate was then incubated for 48 hours at 37° C. in a humidified environment (95% O2, 5% CO2)
Varying concentrations of each compound to be tested (in DMSO) were diluted in assay buffer [HBSS with Calcium/Magnesium (Lonza/BioWhittaker cat #10-527F)/0.1% BSA (Sigma Aldrich cat #A7409-1L)/20 mM HEPES (Lonza/BioWhittaker cat #17-737E)] containing 100 μM 3-isobutyl-1-methylxanthin (IBMX; Sigma cat #15879). The final DMSO concentration in the compound/assay buffer mixture is 1%.
After 48 hours, the growth media was removed from the assay plate wells, and the cells were treated with 20 μL of the serially diluted compound in assay buffer for 30 minutes at 37° C. in a humidified environment (95% O2, 5% CO2). Following the 30 minute incubation, 10 μL of labeled d2 cAMP and 10 μL of anti-cAMP antibody (both diluted 1:20 in cell lysis buffer; as described in the manufacturer's assay protocol) were added to each well of the assay plate. The plates were then incubated at room temperature and after 60 minutes, changes in the HTRF signal were read with an Envision 2104 multi-label plate reader using excitation of 330 nm and emissions of 615 and 665 nm. Raw data were converted to nM cAMP by interpolation from a cAMP standard curve (as described in the manufacturer's assay protocol) and the percent effect was determined relative to a saturating concentration of the full agonist GLP-1 (1 μM) included on each plate. EC50 determinations were made from agonist dose response curves analyzed with a curve fitting program using a 4-parameter logistic dose response equation.

Data set [2] in a line: Metabolite profiling of pooled human plasma after repeat oral dosing of Compound 1 (HPLC/UV/MS). As to conditions: for observed as major or minor metabolite in human plasma: Compound 1 120 mg BID, Day 28; for Plasma Extracts: Compound 1 120 mg oral BID, Day 28, HPLC/UV/MS.
Protocol: Plasma samples from nine human subjects following oral administration of 120 mg BID for 28 days in a clinical study were examined for metabolites.
Individual subject's plasma (from nine human subjects with 120 mg BID dose Day 28) were pooled in proportion to the time period represented by each to yield a pool for profiling that was representative of the AUC (0-12 hr) according to the method of Hamilton et al. [Hamilton R A, Garnett W R, Kline B J. Determination of a mean valproic acid serum level by assay of a single pooled sample. […] Pooled plasma time points were first prepared by aliquoting equal amounts (1.0 mL) of plasma from each subject prior to making a single Hamilton pool. Blank plasma pools were made by taking equal aliquots of predose samples. To a 2 mL aliquot of each pooled plasma sample was added 6 mL of acetonitrile and then mixed. Protein precipitated samples were centrifuged for 5 minutes at 2000×g and the supernatants were transferred to other clean 15 mL centrifuge tubes. Samples were dried using an evaporative centrifuge set to 37° C. Samples were reconstituted using 0.2 mL of 5:95 acetonitrile:water and analyzed by HPLC/UV/MS.
Reconstituted samples were analyzed by positive ion HPLC/UV/MS using a Thermo Orbitrap Elite mass spectrometer operating in positive ion electrospray mode. Xcalibur software version 3.0.63 was used to control the HPLC/UV/MS system. Full scan data were collected at 15,000 resolution. Data dependent product ion scans of the two most intense ions found in the full scan were obtained at 15,000 resolution. The dynamic exclusion function was used with a 10 second exclusion duration after 3 successive product ion scans with an early exclusion if the precursor ion fell below a signal to noise ratio of 20. The HPLC system consisted of an Accela quaternary solvent delivery pump, an Accela autoinjector, an Accela PDA Plus photodiode array detector (Thermo Electron Corporation). Chromatography was performed on a Phenomenex Kinetex column (2.1 mm×100 mm, 2.6 μm) at 45° C. using a HotSleeve column heater (Analytical Sales and Services). The mobile phase was composed of 0.1% formic acid in water (solvent A) and acetonitrile (solvent B). The solvent delivery gradient program was as follows:
Data set [3] addresses human GLP-1R (Homo sapiens, UniProt P43220). As to the kind of experiment: CHO GLP-1R Clone H6 - Assay 1 (HTRF cAMP agonist assay).
Protocol: (§1) GLP-1R-mediated agonist activity was determined with a cell-based functional assay utilizing an HTRF (Homogeneous Time-Resolved Fluorescence) cAMP detection kit (cAMP HI Range Assay Kit; CisBio cat #62AM6PEJ) that measures cAMP levels in the cell. The method is a competitive immunoassay between native cAMP produced by the cells and exogenous cAMP labeled with the dye d2. The tracer binding is visualized by a mAb anti-cAMP labeled with Cryptate. The specific signal (i.e. energy transfer) is inversely proportional to the concentration of cAMP in either standard or experimental sample.
(§2) The human GLP-1R coding sequence (NCBI Reference Sequence NP_002053.3, including naturally-occurring variant Gly168Ser) was subcloned into pcDNA3 (Invitrogen) and a cell line stably expressing the receptor was isolated (designated Clone H6).
(§3) Cells were removed from cryopreservation, re-suspended in 40 mL of Dulbecco's Phosphate Buffered Saline (DPBS—Lonza Cat #17-512Q) and centrifuged at 800×g for 5 minutes at 22° C. The cell pellet was then re-suspended in 10 mL of growth medium [DMEM/F12 1:1 Mixture with HEPES, L-Gln, 500 mL (DMEM/F12 Lonza Cat #12-719F), 10% heat inactivated fetal bovine serum (Gibco Cat #16140-071), 5 mL of 100× Pen-Strep (Gibco Cat #15140-122), 5 mL of 100× L-Glutamine (Gibco Cat #25030-081) and 500 μg/mL Geneticin (G418) (Invitrogen #10131035)]. A 1 mL sample of the cell suspension in growth media was counted on a Becton Dickinson ViCell to determine cell viability and cell count per mL. The remaining cell suspension was then adjusted with growth media to deliver 2000 viable cells per well using a Matrix Combi Multidrop reagent dispenser, and the cells were dispensed into a white 384 well tissue culture treated assay plate (Corning 3570). The assay plate was then incubated for 48 hours at 37° C. in a humidified environment in 5% carbon dioxide.
(§4) Varying concentrations of each compound to be tested (in DMSO) were diluted in assay buffer (HBSS with Calcium/Magnesium (Lonza/BioWhittaker cat #10-527F)/0.1% BSA (Sigma Aldrich cat #A7409-1L)/20 mM HEPES (Lonza/BioWhittaker cat #17-737E) containing 100 μM 3-isobutyl-1-methylxanthin (IBMX; Sigma cat #15879). The final DMSO concentration is 1%.
(§5) After 48 hours, the growth media was removed from the assay plate wells, and the cells were treated with 20 μL of the serially diluted compound in assay buffer for 30 minutes at 37° C. in a humidified environment in 5% carbon dioxide. Following the 30 minute incubation, 10 μL of labeled d2 cAMP and 10 μL of anti-cAMP antibody (both diluted 1:20 in cell lysis buffer; as described in the manufacturer's assay protocol) were added to each well of the assay plate. The plates were then incubated at room temperature and after 60 minutes, changes in the HTRF signal were read with an Envision 2104 multi-label plate reader using excitation of 330 nm and emissions of 615 and 665 nm. Raw data were converted to nM cAMP by interpolation from a cAMP standard curve (as described in the manufacturer's assay protocol) and the percent effect was determined relative to a saturating concentration of the full agonist GLP-17-36 (1 μM) included on each plate. EC50 determinations were made from agonist dose-response curves analyzed with a curve fitting program using a 4-parameter logistic dose response equation.
In data set [4] the target is human GLP-1R (Homo sapiens, UniProt P43220, G168S). Described as above. Particulars: read-out: Assay 1 Emax (%).
human GLP-1R (Homo sapiens, UniProt P43220, G168S), sequence (P43220 24-463 G168S): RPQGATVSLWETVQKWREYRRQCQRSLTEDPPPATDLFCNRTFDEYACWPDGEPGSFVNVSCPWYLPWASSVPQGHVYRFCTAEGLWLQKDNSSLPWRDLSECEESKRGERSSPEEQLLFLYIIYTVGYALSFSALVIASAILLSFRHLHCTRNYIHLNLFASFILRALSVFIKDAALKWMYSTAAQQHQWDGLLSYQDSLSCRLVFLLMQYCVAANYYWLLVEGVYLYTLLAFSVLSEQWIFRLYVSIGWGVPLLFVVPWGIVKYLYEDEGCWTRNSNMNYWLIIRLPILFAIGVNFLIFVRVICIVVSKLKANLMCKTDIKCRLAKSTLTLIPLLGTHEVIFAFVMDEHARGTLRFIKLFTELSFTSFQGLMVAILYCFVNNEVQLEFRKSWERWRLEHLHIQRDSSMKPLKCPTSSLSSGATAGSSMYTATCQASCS
Protocol: as §1, §2, §3, §4, §5

A value given as a limit tells only on which side of the number the result lay.

T1 sequence (P43220 24-463 L260F): as the sequence (P43220 24-463 G168S) above, with S145G, L237F counted along it
human GLP-1R (Homo sapiens, UniProt P43220), sequence (P43220 24-463 G168S): as the sequence (P43220 24-463 G168S) above

In data set [1], `N#Cc1ccc(COc2cccc(C3CCN(Cc4nc5ccc(C(=O)O[C@@H]6O[C@H](C(=O)O)[C@@H](O)[C@H](O)[C@H]6O)cc5n4C[C@@H]4CCO4)CC3)n2)c(F)c1` [Compound M1, (2S,3S,4S,5R,6S)-6-((2-((4-(6-((4-cyano-2-fluorobenzyl)oxy)pyridin-2-yl)piperidin-1-yl)methyl)-1-(((S)-oxetan-2-yl)methyl)-1H-benzo[d]imidazole-6-carbonyl)oxy)-3,4,5-trihydroxytetrahydro-2H-pyran-2-carboxylic acid] registered an Emax of 98% and an EC50 of 2500 nM. Besides, in data set [2], the “observed as major or minor metabolite in human plasma” value is given as “minor metabolite” and the “Plasma Extracts” value was “+”. In data set [3], this molecule displayed an EC50 of 130 nM. Moreover, the Emax in data set [4] was determined as 114%.

With `O=C(O)c1ccc2nc(CN3CCC(c4cccc(=O)[nH]4)CC3)n(C[C@@H]3CCO3)c2c1` [Compound M2, (S)-2-((4-(6-hydroxypyridin-2-yl)piperidin-1-yl)methyl)-1-(oxetan-2-ylmethyl)-1H-benzo[d]imidazole-6-carboxylic acid], the Emax in data set [1] worked out at 0%; in data set [4], 2%. The EC50 in data set [1] and in data set [3] was above 20000 nM throughout. Besides, the “observed as major or minor metabolite in human plasma” value in data set [2] is recorded as “major circulating metabolite”. Besides, in data set [2], the “Plasma Extracts” value was “+++”.

One may read the Emax as the maximal effect, on the per cent scale that the assay sets. What is called EC50 is the concentration at which the effect is half-maximal.

Values taken from patent US12065434B2, “Metabolites of GLP1R agonists” (Pfizer Inc., priority 2020, dated 2024).
